Test results published in ChEMBL document CHEMBL3885861, “Open TG-GATES”.

Species: Rattus norvegicus
Assay: Open TG-GATES - Regimen: Single
Type: toxicity, organism-based, Sprague-Dawley
Design: regimen Single, gender Male, age 6 weeks
Conditions: in vivo, po, 50 mg/kg, route gavage, dose level Middle; for APTT / Bas / Eos / Fbg / Hb / Ht / Lym / MCH / MCHC / MCV / Mono / Neu / PT / Plat / RBC / Ret / WBC: tissue Blood; for KIDNEY_L / KIDNEY_R / KIDNEY_TOTAL: tissue Kidney; for LIVER: tissue Liver; for A/G / ALP / ALT / AST / BUN / CRE / Ca / Cl / DBIL / GLC / IP / K / LDH / Na / PL / RALB / TBIL / TC / TG / TP / gamma-GTP: tissue Plasma

SMILES: CC1=C(CC(=O)O)c2cc(F)ccc2/C1=C\c1ccc([S+](C)[O-])cc1 (configuration not stated)
- TERMINAL_BW (3 h): 204.9 g
- APTT (3 h): 16.8 s
- Bas (3 h): 0%
- Eos (3 h): 1%
- Fbg (3 h): 266 mg/dL
- Hb (3 h): 13.2 g/dL
- Ht (3 h): 40.3%
- Lym (3 h): 77.6%
- MCH (3 h): 21.2 pg
- MCHC (3 h): 32.7%
- MCV (3 h): 65 fL
- Mono (3 h): 2.6%
- Neu (3 h): 18.4%
- PT (3 h): 14.1 s
- Plat (3 h): 130.3 x10_4/uL
- RBC (3 h): 620.8 x10_4/ul
- Ret (3 h): 8.7%
- WBC (3 h): 77.3 x10_2/uL
- KIDNEY_L (3 h): 0.9 g
- KIDNEY_R (3 h): 0.9 g
- KIDNEY_TOTAL (3 h): 1.8 g
- LIVER (3 h): 9 g
- A/G (3 h): 0.9
- ALP (3 h): 1442.8 IU/L
- ALT (3 h): 43.4 IU/L
- AST (3 h): 76.2 IU/L
- BUN (3 h): 11.4 mg/dL
- CRE (3 h): 0.2 mg/dL
- Ca (3 h): 11 mg/dL
- Cl (3 h): 104.8 meq/L
- DBIL (3 h): 0.01 mg/dL
- GLC (3 h): 166.8 mg/dL
- IP (3 h): 8.6 mg/dL
- K (3 h): 3.9 meq/L
- LDH (3 h): 81.4 IU/L
- Na (3 h): 141.6 meq/L
- PL (3 h): 140.4 mg/dL
- RALB (3 h): 2.5 g/dL
- TBIL (3 h): 0.046 mg/dL
- TC (3 h): 74.6 mg/dL
- TG (3 h): 58.8 mg/dL
- TP (3 h): 5.3 g/dL
- gamma-GTP (3 h): 1.2 IU/L
- TERMINAL_BW (6 h): 201.8 g
- APTT (6 h): 15.7 s
- Bas (6 h): 0%
- Eos (6 h): 0.8%
- Fbg (6 h): 289.4 mg/dL
- Hb (6 h): 13.7 g/dL
- Ht (6 h): 42.1%
- Lym (6 h): 78.4%
- MCH (6 h): 21.1 pg
- MCHC (6 h): 32.6%
- MCV (6 h): 64.6 fL
- Mono (6 h): 3%
- Neu (6 h): 17.2%
- PT (6 h): 13.8 s
- Plat (6 h): 113.6 x10_4/uL
- RBC (6 h): 652.4 x10_4/ul
- Ret (6 h): 7.8%
- WBC (6 h): 73.5 x10_2/uL
- KIDNEY_L (6 h): 0.9 g
- KIDNEY_R (6 h): 0.9 g
- KIDNEY_TOTAL (6 h): 1.9 g
- LIVER (6 h): 8.4 g
- A/G (6 h): 0.9
- ALP (6 h): 1437 IU/L
- ALT (6 h): 44.4 IU/L
- AST (6 h): 69.8 IU/L
- BUN (6 h): 10.8 mg/dL
- CRE (6 h): 0.2 mg/dL
- Ca (6 h): 11 mg/dL
- Cl (6 h): 106 meq/L
- DBIL (6 h): 0.01 mg/dL
- GLC (6 h): 172.4 mg/dL
- IP (6 h): 9.4 mg/dL
- K (6 h): 4.3 meq/L
- LDH (6 h): 69.6 IU/L
- Na (6 h): 141 meq/L
- PL (6 h): 135.6 mg/dL
- RALB (6 h): 2.6 g/dL
- TBIL (6 h): 0.044 mg/dL
- TC (6 h): 70.8 mg/dL
- TG (6 h): 47.8 mg/dL
- TP (6 h): 5.3 g/dL
- gamma-GTP (6 h): 1 IU/L
- TERMINAL_BW (9 h): 202.2 g
- APTT (9 h): 16.8 s
- Bas (9 h): 0%
- Eos (9 h): 0.8%
- Fbg (9 h): 291.6 mg/dL
- Hb (9 h): 13.5 g/dL
- Ht (9 h): 41.5%
- Lym (9 h): 79.4%
- MCH (9 h): 20.6 pg
- MCHC (9 h): 32.6%
- MCV (9 h): 63.2 fL
- Mono (9 h): 2.6%
- Neu (9 h): 16.8%
- PT (9 h): 14 s
- Plat (9 h): 117.4 x10_4/uL
- RBC (9 h): 656.4 x10_4/ul
- Ret (9 h): 7.8%
- WBC (9 h): 67.5 x10_2/uL
- KIDNEY_L (9 h): 0.9 g
- KIDNEY_R (9 h): 0.9 g
- KIDNEY_TOTAL (9 h): 1.9 g
- LIVER (9 h): 8.2 g
- A/G (9 h): 0.9
- ALP (9 h): 1341.4 IU/L
- ALT (9 h): 42.2 IU/L
- AST (9 h): 67.8 IU/L
- BUN (9 h): 11.2 mg/dL
- CRE (9 h): 0.2 mg/dL
- Ca (9 h): 10.8 mg/dL
- Cl (9 h): 106.6 meq/L
- DBIL (9 h): 0.01 mg/dL
- GLC (9 h): 177.6 mg/dL
- IP (9 h): 9.9 mg/dL
- K (9 h): 4.4 meq/L
- LDH (9 h): 65.6 IU/L
- Na (9 h): 142 meq/L
- PL (9 h): 135 mg/dL
- RALB (9 h): 2.6 g/dL
- TBIL (9 h): 0.04 mg/dL
- TC (9 h): 71.6 mg/dL
- TG (9 h): 38 mg/dL
- TP (9 h): 5.3 g/dL
- gamma-GTP (9 h): 1.2 IU/L
- TERMINAL_BW (24 h): 210.3 g
- APTT (24 h): 16.1 s
- Bas (24 h): 0%
- Eos (24 h): 0.6%
- Fbg (24 h): 354.6 mg/dL
- Hb (24 h): 13.7 g/dL
- Ht (24 h): 42.2%
- Lym (24 h): 62%
- MCH (24 h): 21 pg
- MCHC (24 h): 32.5%
- MCV (24 h): 64.8 fL
- Mono (24 h): 3.2%
- Neu (24 h): 33.8%
- PT (24 h): 13.5 s
- Plat (24 h): 133.9 x10_4/uL
- RBC (24 h): 653.2 x10_4/ul
- Ret (24 h): 7.9%
- WBC (24 h): 115.7 x10_2/uL
- KIDNEY_L (24 h): 0.9 g
- KIDNEY_R (24 h): 0.9 g
- KIDNEY_TOTAL (24 h): 1.9 g
- LIVER (24 h): 9.7 g
- A/G (24 h): 1
- ALP (24 h): 1280.2 IU/L
- ALT (24 h): 43 IU/L
- AST (24 h): 67.8 IU/L
- BUN (24 h): 14.6 mg/dL
- CRE (24 h): 0.2 mg/dL
- Ca (24 h): 11 mg/dL
- Cl (24 h): 103.4 meq/L
- DBIL (24 h): 0.01 mg/dL
- GLC (24 h): 189.6 mg/dL
- IP (24 h): 7.9 mg/dL
- K (24 h): 4 meq/L
- LDH (24 h): 86.2 IU/L
- Na (24 h): 141 meq/L
- PL (24 h): 141.8 mg/dL
- RALB (24 h): 2.5 g/dL
- TBIL (24 h): 0.024 mg/dL
- TC (24 h): 78.4 mg/dL
- TG (24 h): 88.4 mg/dL
- TP (24 h): 5.2 g/dL
- gamma-GTP (24 h): 1 IU/L
